Results published in patent publication US20040072750A1, “Compounds and methods for the modulation of CD154” (priority 2001, published 2004).
“Also recorded” adds a separate entry of the source. Bridge positions count the residues as written; N and C are the ends. Square brackets hold non-standard residues; d marks the D form. Peptide text beside a SMILES is read from it. hArg = N=C(N)NCCCC[C@H](N)C(=O)O; Mpa = O=C(O)CCS

Tests used:
[1] = tested on: washed platelets; assay: Western blot analysis of immunoprecipitated platelet CD154 (hydrolysis to 18 kDa sCD154); type: cell-based, human
Description: As previously described, CD154 exists as a 33/31 kDa doublet in unstimulated platelets.

[2] = tested on: platelets; assay: Platelet surface expression of CD154 and release of thrombospondin; type: cell-based, human
[3] = tested on: Human umbilical vein endothelial cells (HUVECS); assay: Inflammatory response of endothelial cells to rsCD154 (MCP-1 ELISA, tissue factor clotting assay, ICAM-1/E-Selectin FACS); type: cell-based
Method: Inflammation in the present invention study was measured by the upregulation of tissue factor on cultured endothelial cells. Endothelial cells were the cells selected for study as this is the most abundant cell exposed to blood and is known to express […], the ligand for CD154 (Yellin, MJ, J. Exp Med, 182: 1857(1995)).
Human umbilical vein endothelial cells (HUVECS) purchased from Clonetics Inc. were cultured with M199 containing 20% FBS, 50 μg/ml endothelial mitogen (Biomedical technologies Inc.) 2 mM glutamine, 1 mM Sodium Pyruvate, 1× Nonessential amino acids, 100 U/ml of penicillin/streptomycin and 100 μg/ml heparin. HUVECS (passage 3-5) grown in 6 well dishes or 96 well tissue culture plates coated with 0.75% bovine skin gelatin (Sigma chemicals) were incubated without and with different concentrations (100 ng-10 μg/ml) of rsCD 154 in the presence of TRAP-1 (monoclonal antibody against hCD154, BD Pharmingen) or MOPC-21 (mouse IgG, Sigma) for 4 hrs at 37° C. in Tyrode's-Hepes buffer (12 mM NaHCO3, 138 mM NaCl, 5.5 mM glucose, 2.9 mM KCl, 10 mM Hepes, 1 mM CaCl2, 1 mM MgCl2, pH 7.4). […]
The supernatants were collected and the concentrations of MCP-1 determined by ELISA. Expression of tissue factor was determined by clotting assays performed with the HUVECS in the 96 well plates. […] The expression of ICAM-1 and E-Selectin was determined by FACS analysis (FACSort, Beckton Dickinson) following release of the HUVECS from the dishes. HUVECS, when exposed to 2 μg/ml rsCD154, secreted 3 fold more MCP-1 after 4 hrs and this increase was blocked by anti-CD154 antibody, but not by an isotype matched control antibody. As measured by clotting assay there was 50% reduction in clotting time, which was reversed in the presence of TRAP-1.

Molecule | hydrolysis of CD154 and release of sCD154 from stimulated platelets ([1]; 5 μmol/L TRAP plus 2.5 μmol/L eptifibatide, 30 minutes) | CD154 hydrolysis and appearance of the soluble 18 kDa fragment ([1]; TRAP aggregation, 5 μM eptifibatide) | thrombin- or TRAP-induced surface expression of CD154 [2] | TRAP-induced release of thrombospondin ([2]; data not shown) | increased expression of ICAM-1 and E-Selectin ([3]; 2 μg/ml of rsCD154, FACS) | MCP-1 secretion by HUVECS ([3]; 2 μg/ml rsCD154, 4 hrs) | reduction in clotting time (tissue factor clotting assay) ([3]; HUVECS exposed to rsCD154)
N=C(N)NCCCC[C@@H]1NC(=O)CCSSC[C@@H](C(N)=O)NC(=O)[C@@H]2CCCN2C(=O)[C@H](Cc2c[nH]c3ccccc23)NC(=O)[C@H](CC(=O)O)NC(=O)CNC1=O [eptifibatide] ([Mpa][hArg]GDWPC-NH2; disulfide 1-7) | inhibited | prevented | did not affect; also recorded: unaffected | did not affect; also recorded: without affecting | – | – | –
rsCD154: bacterially expressed recombinant human soluble CD154 (108 a.a-261 a.a.), 18-kDa protein (protein) ENSFEMQKGDQNPQIAAHVISEASSKTTSVLQWAEKGYYTMSNNLVTLENGKQLTVKRQGLYYIYAQVTFCSNREASSQAPFIASLCLKSPGRFERILLRAANTHSSAKPCGQQSIHLGGVFELQPGASVFVNVTDPSQVSHGTGFTSFGLLKL | – | – | – | – | 2 fold | 3 fold | 50%
